The source of these data is US12297190B2, “Modulators of STING (stimulator of interferon genes)” (PFIZER INC., priority 2019, dated 2025).

In the experiment the target is R232-STING (Homo sapiens, UniProt Q86WV6, H232R). The experiment in a line: biochemical.
Chain of R232-STING (Q86WV6 155-341 H232R): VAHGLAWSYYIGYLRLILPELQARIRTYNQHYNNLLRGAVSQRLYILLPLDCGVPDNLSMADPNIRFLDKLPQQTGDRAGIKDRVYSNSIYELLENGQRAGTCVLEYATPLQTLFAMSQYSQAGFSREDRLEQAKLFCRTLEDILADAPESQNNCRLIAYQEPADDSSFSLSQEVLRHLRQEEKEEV
As a reminder, the Ki is the dissociation constant of the complex between target and ligand, obtained from inhibition or displacement. A higher Ki goes with a looser hold on the target. `CCn1nc(C)c(F)c1-c1nc(-c2nc(C(N)=O)cc3c2cnn3CCN2C[C@@H](C)O[C@@H](C)C2)n(C)n1` [ZZZ087, 1-{2-[(2R,6S)-2,6-dimethylmorpholin-4-yl]ethyl}-4-[3-(1-ethyl-4-fluoro-3-methyl-1H-pyrazol-5-yl)-1-methyl-1H-1,2,4-triazol-5-yl]-1H-pyrazolo[4,3-c]pyridine-6-carboxamide]: the Ki was above 990 nM.
For `CCn1nc(C)cc1-c1nnc(-c2cc(C(N)=O)cc3c2cnn3CC2CC3(CCNC3)C2)[nH]1` (stereo not drawn) [ZZZ070, 1-[(6-azaspiro[3.4]octan-2-yl)methyl]-4-[5-(1-ethyl-3-methyl-1H-pyrazol-5-yl)-4H-1,2,4-triazol-3-yl]-1H-indazole-6-carboxamide] the value was above 990 nM; for `CCn1nc(C)cc1-c1nnc(-c2cc(C(N)=O)cc3c2cnn3CC[C@@H]2CCCN(C)C2)[nH]1` (racemic) [ZZZ042, 4-[5-(1-ethyl-3-methyl-1H-pyrazol-5-yl)-4H-1,2,4-triazol-3-yl]-1-{2-[(3S)-1-methylpiperidin-3-yl]ethyl}-1H-indazole-6-carboxamide], above 990 nM.
In the case of `CCn1nc(C)cc1-c1nc(-c2nc(C(N)=O)cc3c2cnn3C)n(CCN)n1` [ZZZ047, 4-[1-(2-aminoethyl)-3-(1-ethyl-3-methyl-1H-pyrazol-5-yl)-1H-1,2,4-triazol-5-yl]-1-methyl-1H-pyrazolo[4,3-c]pyridine-6-carboxamide], the Ki is above 90 nM.
`CCn1nc(C)cc1-c1nnc(-c2cc(C(N)=O)cc3c2cnn3CC(C)(C)CN(C)C)[nH]1` [ZZZ013, 1-[3-(dimethylamino)-2,2-dimethylpropyl]-4-[5-(1-ethyl-3-methyl-1H-pyrazol-5-yl)-4H-1,2,4-triazol-3-yl]-1H-indazole-6-carboxamide] displayed a Ki above 990 nM.
Compound `CCn1nc(C)cc1-c1n[nH]c(-c2cc(C(N)=O)cc3c2cnn3CCN2CCO[C@H](C)C2)n1` [ZZZ098, 4-[3-(1-ethyl-3-methyl-1H-pyrazol-5-yl)-1H-1,2,4-triazol-5-yl]-1-{2-[(2R)-2-methylmorpholin-4-yl]ethyl}-1H-indazole-6-carboxamide] returned a Ki of 541 nM.
For `CCn1nc(C)cc1-c1n[nH]c(-c2cc(C(N)=O)cc3c2cnn3CCN(C)C2CCC2)n1` [ZZZ108, 1-{2-[cyclobutyl(methyl)amino]ethyl}-4-[3-(1-ethyl-3-methyl-1H-pyrazol-5-yl)-1H-1,2,4-triazol-5-yl]-1H-indazole-6-carboxamide] the value was 850 nM.
For `CCn1nc(C)cc1-c1nnc(-c2cc(C(N)=O)cc3c2cnn3CCCC2CCCNC2)[nH]1` (stereo not drawn) [ZZZ079, 4-[5-(1-ethyl-3-methyl-1H-pyrazol-5-yl)-4H-1,2,4-triazol-3-yl]-1-[3-(piperidin-3-yl)propyl]-1H-indazole-6-carboxamide] the value was 785 nM; for `CCn1nc(C)cc1-c1nnc(-c2cc(C(N)=O)cc3c2cnn3CCC2CCNCC2)[nH]1` [ZZZ073, 4-[5-(1-ethyl-3-methyl-1H-pyrazol-5-yl)-4H-1,2,4-triazol-3-yl]-1-[2-(piperidin-4-yl)ethyl]-1H-indazole-6-carboxamide], 650 nM; for `CCn1nc(C)cc1-c1nnc(-c2cc(C(N)=O)cc3c2cnn3C[C@H]2CCN(C3CC3)C2)[nH]1` (racemic) [ZZZ038, 1-{[(3S)-1-cyclopropylpyrrolidin-3-yl]methyl}-4-[5-(1-ethyl-3-methyl-1H-pyrazol-5-yl)-4H-1,2,4-triazol-3-yl]-1H-indazole-6-carboxamide], 928 nM.
The compound `CCn1nc(C)cc1-c1n[nH]c(-c2cc(C(N)=O)cc3c2cnn3CCN2CC[C@H](O)C2)n1` (racemic) [ZZZ119, 4-[3-(1-ethyl-3-methyl-1H-pyrazol-5-yl)-1H-1,2,4-triazol-5-yl]-1-{2-[(3S)-3-hydroxypyrrolidin-1-yl]ethyl}-1H-indazole-6-carboxamide] gave an inhibition constant (Ki) above 990 nM.
For `CCn1nc(C)cc1-c1ncc(-c2cc(C(N)=O)cc3c2cnn3C)[nH]1` [ZZZ009, 4-[2-(1-ethyl-3-methyl-1H-pyrazol-5-yl)-1H-imidazol-5-yl]-1-methyl-1H-indazole-6-carboxamide], affinity was put at a Ki of 947 nM.
For `CCn1nc(C)cc1-c1nc(C(=O)O)c(-c2nc(C(N)=O)cc3c2cnn3C)o1` [ZZZ131, 5-(6-carbamoyl-1-methyl-1H-pyrazolo[4,3-c]pyridin-4-yl)-2-(1-ethyl-3-methyl-1H-pyrazol-5-yl)-1,3-oxazole-4-carboxylic acid] the value was above 990 nM; for `CCn1nc(C)cc1-c1nnc(-c2cc(C(N)=O)cc3nn(C)nc23)[nH]1` [ZZZ003, 7-[5-(1-ethyl-3-methyl-1H-pyrazol-5-yl)-4H-1,2,4-triazol-3-yl]-2-methyl-2H-benzotriazole-5-carboxamide], above 990 nM; for `CCn1nc(C)c(F)c1-c1n[nH]c(-c2cc(C(N)=O)cc3c2cnn3CCCNC)n1` [ZZZ054, 4-[3-(1-ethyl-4-fluoro-3-methyl-1H-pyrazol-5-yl)-1H-1,2,4-triazol-5-yl]-1-[3-(methylamino)propyl]-1H-indazole-6-carboxamide], above 1890 nM.
For `CCn1nc(C)cc1-c1nnc(-c2cc(C(N)=O)cc3c2cnn3C[C@@H]2CNCCO2)[nH]1` [ZZZ064, 4-[5-(1-ethyl-3-methyl-1H-pyrazol-5-yl)-4H-1,2,4-triazol-3-yl]-1-{[(2S)-morpholin-2-yl]methyl}-1H-indazole-6-carboxamide] the value was above 990 nM; for `CCn1nc(C)cc1-c1nnc(-c2cc(C(N)=O)cc3c2cnn3CCCC2CCNCC2)[nH]1` [ZZZ077, 4-[5-(1-ethyl-3-methyl-1H-pyrazol-5-yl)-4H-1,2,4-triazol-3-yl]-1-[3-(piperidin-4-yl)propyl]-1H-indazole-6-carboxamide], above 990 nM.
Under `CCn1nc(C)cc1-c1nnc(-c2cc(C(N)=O)cc3c2cnn3C[C@H]2CC23CCNCC3)[nH]1` (racemic) [ZZZ072, 1-{[(1S)-6-azaspiro[2.5]octan-1-yl]methyl}-4-[5-(1-ethyl-3-methyl-1H-pyrazolo-5-yl)-4H-1,2,4-triazol-3-yl]-1H-indazole-6-carboxamide] stands 835 nM; under `CCn1nc(C)cc1-c1nnc(-c2cc(C(N)=O)cc3c2cnn3C[C@@H]2CCC3(CNC3)O2)[nH]1` (racemic) [ZZZ063, 4-[5-(1-ethyl-3-methyl-1H-pyrazol-5-yl)-4H-1,2,4-triazol-3-yl]-1-{[(6S)-5-oxa-2-azaspiro[3.4]octan-6-yl]methyl}-1H-indazole-6-carboxamide], above 990 nM; under `CCn1nc(C)cc1-c1n[nH]c(-c2cc(C(N)=O)cc3c2cnn3CCN2CCO[C@@H](CO)C2)n1` (racemic) [ZZZ092, 4-[3-(1-ethyl-3-methyl-1H-pyrazol-5-yl)-1H-1,2,4-triazol-5-yl]-1-{2-[(2R)-2-(hydroxymethyl)morpholin-4-yl]ethyl}-1H-indazole-6-carboxamide], 969 nM.
For the compound `CCn1nc(C)cc1-c1nnc(-c2cc(C(N)=O)cc3c2cnn3C[C@H]2CCCCN2C)[nH]1` [ZZZ032, 4-[5-(1-ethyl-3-methyl-1H-pyrazol-5-yl)-4H-1,2,4-triazol-3-yl]-1-{[(2R)-1-methylpiperidin-2-yl]methyl}-1H-indazole-6-carboxamide], the affinity, expressed as Ki, was 967 nM.
For `CCn1nc(C)cc1-c1n[nH]c(-c2nc(C(N)=O)cc3cn[nH]c23)n1` [ZZZ010, 7-[3-(1-ethyl-3-methyl-1H-pyrazol-5-yl)-1H-1,2,4-triazol-5-yl]-1H-pyrazolo[3,4-c]pyridine-5-carboxamide] the value was above 990 nM; for `CCn1nc(C)cc1-c1nnc(-c2cc(C(N)=O)cc3c2cnn3CCCCN2CCOCC2)[nH]1` [ZZZ037, 4-[5-(1-ethyl-3-methyl-1H-pyrazol-5-yl)-4H-1,2,4-triazol-3-yl]-1-[4-(morpholin-4-yl)butyl]-1H-indazole-6-carboxamide], 727 nM; for `CCn1nc(C)cc1-c1n[nH]c(-c2cc(C(N)=O)cc3c2cnn3CCN2CCOCC2(C)C)n1` [ZZZ102, 1-[2-(3,3-dimethylmorpholin-4-yl)ethyl]-4-[3-(1-ethyl-3-methyl-1H-pyrazol-5-yl)-1H-1,2,4-triazol-5-yl]-1H-indazole-6-carboxamide], 900 nM.
For `CCn1nc(C)cc1-c1nnc(-c2cc(C(N)=O)cc3c2cnn3C[C@@H](C)C2CCNCC2)[nH]1` [ZZZ076, 4-[5-(1-ethyl-3-methyl-1H-pyrazol-5-yl)-4H-1,2,4-triazol-3-yl]-1-[(2S)-2-(piperidin-4-yl)propyl]-1H-indazole-6-carboxamide] the value was 976 nM.
Turning to `CCn1nc(C)cc1-c1n[nH]c(-c2cc(C(N)=O)cc3c2cnn3CCN2CC3(CCCO3)C2)n1` [ZZZ094, 4-[3-(1-ethyl-3-methyl-1H-pyrazol-5-yl)-1H-1,2,4-triazol-5-yl]-1-[2-(5-oxa-2-azaspiro[3.4]octan-2-yl)ethyl]-1H-indazole-6-carboxamide], the Ki was 550 nM.
Take `CCn1nc(C)cc1-c1n[nH]c(-c2cc(C(N)=O)cc3c2cnn3CCN2C3COCC2C3)n1` [ZZZ090, 4-[3-(1-ethyl-3-methyl-1H-pyrazol-5-yl)-1H-1,2,4-triazol-5-yl]-1-[2-(3-oxa-6-azabicyclo[3.1.1]heptan-6-yl)ethyl]-1H-indazole-6-carboxamide]: the Ki was above 990 nM.
Consider `CCn1nc(C)cc1-c1n[nH]c(-c2cc(C(N)=O)cc3c2cnn3CCN2CC(C)(O)C2)n1` [ZZZ103, 4-[3-(1-ethyl-3-methyl-1H-pyrazol-5-yl)-1H-1,2,4-triazol-5-yl]-1-[2-(3-hydroxy-3-methylazetidin-1-yl)ethyl]-1H-indazole-6-carboxamide], for which the Ki was above 990 nM.
For the compound `CCn1nc(C)c(F)c1-c1nc(CN)c(-c2nc(C(N)=O)cc3c2cnn3C)o1` [ZZZ045, 4-[4-(aminomethyl)-2-(1-ethyl-4-fluoro-3-methyl-1H-pyrazol-5-yl)-1,3-oxazol-5-yl]-1-methyl-1H-pyrazolo[4,3-c]pyridine-6-carboxamide], the inhibition constant (Ki) was above 900 nM.
Under `CCN(CCO)CCn1ncc2c(-c3nc(-c4cc(C)nn4CC)n[nH]3)cc(C(N)=O)cc21` [ZZZ112, 1-{2-[ethyl(2-hydroxyethyl)amino]ethyl}-4-[3-(1-ethyl-3-methyl-1H-pyrazol-5-yl)-1H-1,2,4-triazol-5-yl]-1H-indazole-6-carboxamide] stands above 990 nM.
